US20220090096A1 (priority 2019, published 2022)

What was measured:
[1] = test system: Clostridium spp.; conditions: cited from earlier work
[2] = test system: Pfdx-rbG-botR-T1-Pntnh-catP construct integrated in the pyrE locus; type: cell-based, C. botulinum ATCC 19397 ΔClA

For `Cc1c2c(c(O)c3c(O)cccc13)C(=O)[C@]1(O)C(=O)C(C(N)=O)=C(O)[C@@H](N(C)C)[C@@H]1C2` [anhydrotetracycline], the “effect on cell growth” value [1] is given as “significant inhibitory effects on cell growth”.
For `Cn1c(=O)c2[nH]cnc2n(C)c1=O` [theophylline], the “CAT expression upon induction relative to absence of theophylline” value [2] was “approximately 7 fold”.
